The target in the assay is T1, KRAS 4B G12C protein (Homo sapiens, UniProt P01116, G12C).
T1 construct: This protein contained 188 amino acids in total, including an N-terminal 6-Histidine tag; made in house; host or cells: E. coli BL21
Briefly: In vitro covalent adduct formation (CAF) assay by LC-MS. To be noted: compound 10 μM, protein 5 μM, 22° C., percentage of protein bound by the compound. Type of assay: binding. In outline: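 Recombinant His-TEV-tagged KRAS 4B G12C (residues 1-169, E. coli) at 5 μM in Tris-buffered saline pH 7.4 was incubated with 10 μM compound (4% DMSO) at 22° C. for one hour, sampling over time. Intact-mass LC-MS free:adduct ratios gave % protein bound; duplicates.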

Experimental findings from patent US20210292330A1, “PYRROLIDINE-FUSED HETEROCYCLES” (Erasca, Inc., priority 2020, published 2021) are described below.

SMILES strings stand for the structures.

`C=C(F)C(=O)N1CCN(c2nc(OC[C@@H]3CCCN3C)nc3c2CN(C2CCCc4cccc(Cl)c42)C3)C[C@@H]1CC#N` (stereo partly drawn) [1-126, 2-[(2S)-4-[6-(8-chloro-1,2,3,4-tetrahydronaphthalen-1-yl)-2-{[(2S)-1-methylpyrrolidin-2-yl]methoxy}-5H,7H-pyrrolo[3,4-d]pyrimidin-4-yl]-1-(2-fluoroprop-2-enoyl)piperazin-2-yl]acetonitrile]: the “CAF (10 minutes/60 minutes) at 10 micromolar: 10 minutes” value (from here on “CAF … at 10 micromolar: 10 minutes”) is on record as 53% and the “CAF (10 minutes/60 minutes) at 10 micromolar: 60 minutes” value (“CAF … at 10 micromolar: 60 minutes” below) came out at 88%.
The like results for `C=CC(=O)N1CCN(c2nc(OC[C@@H]3CCCN3C)nc3c2CN(Cc2cccc4ccccc24)C3)C[C@@H]1CC#N` [1-164] were, in that order, 93% and 95%.
Turning to `C=CC(=O)N1CCN(c2nc(OC[C@@H]3CCCO3)nc3c2CN(Cc2c(F)cccc2OC)C3)C[C@@H]1CC#N` [1-79], the “CAF … at 10 micromolar: 10 minutes” value turned out to be 3% and the “CAF … at 10 micromolar: 60 minutes” value was 23%.
The matching figures for `C=CC(=O)N1CCN(c2nc(OC[C@@H]3CCCN3C)nc3c2CN(C2CCc4ccccc42)C3)[C@H](C#N)C1` (some centres unmarked) [1-156]: 11% and 29%.
The like results for `C=CC(=O)N1CCN(c2nc(OC[C@@H]3CCCN3C)nc3c2CN(Cc2ccccc2C(F)(F)F)C3)C[C@@H]1CC#N` [1-213] were, in that order, 94% and 95%.
The like results for `C=CC(=O)N1CCN(c2nc(OCc3ccccn3)nc3c2CN(C2CCc4ccccc42)C3)C[C@@H]1CC#N` (some centres unmarked) [1-132] were, in that order, 24% and 68%.
As to `C=CC(=O)N1CCN(c2nc(OC[C@@H]3CCCN3C)nc3c2CN(C2CCc4ccccc42)C3)C[C@@H]1CC(F)(F)F` (some centres unmarked) [1-100], the “CAF … at 10 micromolar: 10 minutes” value turned out to be 0% and the “CAF … at 10 micromolar: 60 minutes” value is 5%.
The matching figures for `C=CC(=O)N1CCN(c2nc(OC[C@@H]3CCCN3C)nc3c2CN(Cc2cccc4ncoc24)C3)C[C@@H]1CC#N` [1-203]: 11% and 52%.
The matching figures for `C=CC(=O)N1CCN(c2nc(OC[C@@H]3CCCN3C)nc3c2CN(Cc2cccc4ncccc24)C3)C[C@@H]1CC#N` [1-318]: 1% and 11%.
The like results for `C=CC(=O)N1C2CCCC1CN(c1nc(OC[C@@H]3CCCN3C)nc3c1CN(Cc1cc(O)ccc1Cl)C3)C2` [1-149] were, in that order, 0% and 8%.
On to `C=CC(=O)N1CCN(c2nc(O[C@@H]3CN(C)C[C@H]3OC)nc3c2CN(C2CCc4ccccc42)C3)C2COCC21` (some centres unmarked) [1-227], for which the “CAF … at 10 micromolar: 10 minutes” value was determined as 0%/ 0% and the “CAF … at 10 micromolar: 60 minutes” value worked out at 0%/ 0%.
Consider `C=C(F)C(=O)N1CCN(c2nc(OC[C@@H]3CCCN3C)nc3c2CN(Cc2c(Cl)ccc(O)c2C)C3)C[C@@H]1CC#N` [1-311], for which the “CAF … at 10 micromolar: 10 minutes” value was determined as 93% and the “CAF … at 10 micromolar: 60 minutes” value worked out at 95%.
The matching figures for `C=C(F)C(=O)N1CCN(c2nc(OC[C@@H]3CCCN3C)nc3c2CN(Cc2c(Cl)ccc4nc[nH]c24)C3)C[C@@H]1CC#N` [1-320]: 76% and 91%.
The like results for `C=CC(=O)N1CCN(c2nc(Oc3cccnc3C3CC3)nc3c2CN(C2CCc4ccccc42)C3)C[C@@H]1CC#N` (some centres unmarked) [1-173] were, in that order, 6% and 24%.
The matching figures for `C=CC(=O)N1CCN(c2nc(OC[C@@H]3CCCN3C)nc3c2CN(Cc2cc(O)ccc2Cl)C3)[C@@H](C)C1` [1-43]: 97% and 98%.
Regarding `C=C(F)C(=O)N1CCN(c2nc(OC[C@@H]3CCCN3C)nc3c2CN(Cc2nc(NC)ccc2Cl)C3)C[C@@H]1CC#N` [1-361], the “CAF … at 10 micromolar: 10 minutes” value is listed as 16% and the “CAF … at 10 micromolar: 60 minutes” value turned out to be 61%.
The like results for `C=CC(=O)N1CCN(c2nc(OC[C@@H]3CCCN3C)nc3c2CN(C2CC(C)(C)c4ccc(OC)cc42)C3)C[C@@H]1CC#N` (some centres unmarked) [1-186] were, in that order, 14% and 36%.
Take `C=CC(=O)N1CCN(c2nc(OC[C@@H]3CCCN3C)nc3c2CN(C(C)c2cc(O)ccc2C)C3)[C@@H](C)C1` (some centres unmarked) [1-54]: the “CAF … at 10 micromolar: 10 minutes” value came out at 70% and the “CAF … at 10 micromolar: 60 minutes” value is given as 77%.
The like results for `C=CC(=O)N1CCN(c2nc(OC[C@@H]3CCCN3C)nc3c2CN(Cc2cc(C(F)(F)F)ccc2C)C3)C[C@@H]1CC#N` [1-8] were, in that order, 20% and 62%.
On to `C=CC(=O)N1CCN(c2nc(OC[C@@H]3CCCN3C)nc3c2CN(C2CCc4ccccc42)C3)C[C@@H]1CC#N` (some centres unmarked) [1-42], for which the “CAF … at 10 micromolar: 10 minutes” value came to 84% and the “CAF … at 10 micromolar: 60 minutes” value is 95%.
The like results for `C=CC(=O)N1CCN(c2nc(OC[C@@H]3CCCN3C)nc3c2CN(Cc2c(Cl)cccc2Cl)C3)C[C@@H]1CC#N` [1-44] were, in that order, 98% and 100%.
The like results for `C=CC(=O)N1CCN(c2nc(OC[C@@H]3CCCN3C)nc3c2CN(Cc2c(C)cc(C)c(O)c2C)C3)C[C@@H]1CC#N` [1-324] were, in that order, 31% and 78%.
The matching figures for `C=CC(=O)N1CCN(c2nc(OC[C@@H]3CCCN3C)nc3c2CN(Cc2cc(Cl)ccc2C)C3)[C@@H](C)C1` [1-30]: 0% and 7%.
Consider `C=CC(=O)N1CCN(c2nc(OC[C@@H]3CCCN3C)nc3c2CN(Cc2cc(C(F)F)ccc2C)C3)[C@@H](C)C1` [1-64], for which the “CAF … at 10 micromolar: 10 minutes” value amounted to 0%/ 0% and the “CAF … at 10 micromolar: 60 minutes” value came to 0%/ 0%.
Take `C=CC(=O)N1[C@H](C)CN(c2nc(OC[C@@H]3CCCN3C)nc3c2CN(Cc2c(Cl)ccc(O)c2C)C3)C[C@H]1C` [1-341]: the “CAF … at 10 micromolar: 10 minutes” value is 0%/ 0% and the “CAF … at 10 micromolar: 60 minutes” value stood at 0%/ 0%.
As for `C=CC(=O)N1CCN(c2nc(OC[C@@H]3CCCN3C)nc3c2CN(Cc2c(CC)ccc(O)c2C)C3)C[C@@H]1CC#N` [1-255], the “CAF … at 10 micromolar: 10 minutes” value turned out to be 92% and the “CAF … at 10 micromolar: 60 minutes” value is reported as 94%.
As to `C=C(F)C(=O)N1CCN(c2nc(OC[C@@H]3CCCN3C)nc3c2CN(Cc2c[nH]nc2C)C3)C[C@@H]1CC#N` [1-343], the “CAF … at 10 micromolar: 10 minutes” value worked out at 0%/ 0% and the “CAF … at 10 micromolar: 60 minutes” value was 0%/ 0%.
`C=CC(=O)N1CCN(c2nc(OC[C@@H]3CCCN3C)nc3c2CN(Cc2c(C)cccc2O)C3)C[C@@H]1CC#N` [1-55]: the “CAF … at 10 micromolar: 10 minutes” value was determined as 78% and the “CAF … at 10 micromolar: 60 minutes” value amounted to 91%.
The matching figures for `C=CC(=O)N1CCN(c2nc(OC)nc3c2CN(Cc2cc(O)ccc2Cl)C3)C[C@@H]1CC#N` [1-78]: 89% and 97%.
The matching figures for `C=CC(=O)N1C2CC(=O)CC1CN(c1nc(OC[C@@H]3CCCN3C)nc3c1CN(C1CCc4ccccc41)C3)C2` (some centres unmarked) [1-233]: 0% and 5%.
The like results for `C=C(F)C(=O)N1CCN(c2nc(OC[C@@H]3CCCN3C)nc3c2CN(Cc2c(CC)ccc(O)c2OC)C3)C[C@@H]1CC#N` [1-313] were, in that order, 87% and 95%.
For `C=CC(=O)N1CCN(c2nc(OC[C@@H]3CCCN3C)nc3c2CN(C(=O)c2cc(O)ccc2C)C3)[C@@H](C)C1` [1-23, 1-((S)-4-(6-(5-hydroxy-2-methylbenzoyl)-2-(((S)-1-methylpyrrolidin-2-yl)methoxy)-6,7-dihydro-5H-pyrrolo[3,4-d]pyrimidin-4-yl)-3-methylpiperazin-1-yl)prop-2-en-1-one], the “CAF … at 10 micromolar: 10 minutes” value is on record as 9% and the “CAF … at 10 micromolar: 60 minutes” value came out at 35%.
The matching figures for `C=CC(=O)N1CCN(c2nc(OC[C@@H]3CCCN3C)nc3c2CN(C2CCc4ccccc42)C3)C[C@@H]1C[S+](C)[O-]` (some centres unmarked) [1-209]: 0%/ 0% and 0%/ 0%.
The matching figures for `C=CC(=O)N1CCN(c2nc(O)nc3c2CN(C2CCc4ccccc42)C3)C[C@@H]1CC#N` (some centres unmarked) [1-135]: 0% and 7%.
The like results for `C=CC(=O)N1CCN(c2nc(OC[C@@H]3CCCN3C)nc3c2CN(c2cccc4cccc(C)c24)C3)[C@@H](C)C1` [1-31] were, in that order, 0% and 6%.
Regarding `C=CC(=O)N1C2COCC1CN(c1nc(OC[C@@H]3CCCN3C)nc3c1CN(Cc1cc(O)ccc1Cl)C3)C2` [1-124], the “CAF … at 10 micromolar: 10 minutes” value amounted to 21% and the “CAF … at 10 micromolar: 60 minutes” value turned out to be 67%.
With `C=C(F)C(=O)N1CCN(c2nc(OC[C@@H]3CCCN3C)nc3c2CN(Cc2cc(O)c(C)cc2Cl)C3)C[C@@H]1CC#N` [1-329], the “CAF … at 10 micromolar: 10 minutes” value is on record as 2% and the “CAF … at 10 micromolar: 60 minutes” value is listed as 22%.
